A word on the melting point: it is the temperature, or range, at which the solid turns liquid.

Here are results for 4 molecules from US11583524B2, “Inhibitors of the interaction between MDM2 and P53” (Janssen Pharmaceutica NV, priority 2007, dated 2023).

Series [1] relates to A2780 ovarian cancer cells. Briefly: Alamar Blue cell proliferation assay, A2780. The class given is cell-based, human. The following applies: Homo sapiens, 96 h, 4-day incubation, read-out: A2780 cell proliferation inhibition pIC50 (converted). Here is the method: Cellular activity of the compounds of formula (I) was determined on A2780 tumour cells using a colorimetric assay for cell toxicity or survival (see example C.2).
The human A2780 ovarian cancer cells were a kind gift from Dr. T. C. Hamilton (Fox Chase Cancer Centre, Pennsylvania, U.S.A.). The cells were cultured in RPMI 1640 medium supplemented with 2 mM L-Glutamine, 50 μg/ml gentamicin and 10% fetal calf serum.
(§1) Resazurin was purchased from Aldrich (Prod. No. 199303). Potassium ferrocyanide, potassium ferricyanide, KH2PO4 and K2HPO4 were purchased from Sigma (Prod. Nos. P9387, P8131, P5655 and P8281, respectively).
(§2) Potassium Phosphate Buffer 0.1 M (PPB) was made as follows: 2.72 gram KH2PO4 and 13.86 gram K2HPO4 were dissolved in 500 ml milli-Q H2O, the pH was adjusted to pH 7.4 and the volume was brought to 1 litre with milli-Q H2O; the buffer was filter sterilised and stored at room temperature. Resazurin stock solution (PPB-A) was prepared fresh by dissolving 45 mg resazurin in 15 ml PBS. 30 mM potassium ferricyanide (PPB-B) was prepared by dissolving 0.987 gram potassium ferricyanide in 100 ml PPB. 30 mM potassium ferrocyanide (PPB-C) was prepared by dissolving 1.266 gram potassium ferrocyanide in 100 ml PPB.
(§3) Mixture of PPB-A, PPB-B and PPB-C was prepared by mixing equal volumes of the respective solutions. Resazurin work solution (herein termed “Alamar Blue” solution) was prepared by diluting said mixture 20×(vol/vol) in PPB and filter sterilising; the Alamar Blue solution could be kept at 4° C. for a maximum of 2 weeks.
(§4) For experiments in 384 wells plates the cells were seeded at a density of 5×10^3 cells/ml in Falcon 384-well culture plates (Life Technologies, Merelbeke, Belgium), black with clear bottom, in 45 μl culture medium. Cells were allowed to adhere to plastic for 24 hr. The tested compound was pre-diluted (1/50 in culture medium) and 5 μl pre-diluted compound was added to the wells. Following 4-day incubation, 10 μl of the Alamar Blue solution was added to each well and the cells were further incubated for 5 hrs (A2780) or 6 hrs (U87MG) at 37° C. The fluorescence intensity was measured for each well with a Fluorescence plate reader (Fluorskan, Labsystems, 540 nm excitation and 590 nm emission)
(§5) The antiproliferative activity was calculated as percentage of remaining viable cells in treated versus control (untreated cells) conditions. Within an experiment, the result for each experimental condition is the mean of 3 replicate wells. When appropriate, the experiments were repeated to establish full concentration-response curves. When appropriate, IC50-values (concentration of the drug, needed to reduce cell growth to 50% of the control) were computed using probit analysis for graded data (Finney, D. J., Probit Analyses, 2nd Ed. Chapter 10, Graded Responses, Cambridge University Press, Cambridge 1962). Herein the effects of test compounds are expressed as pIC50 (the negative log value of the IC50-value) (see Table 4).
(In general: The colour change of resazurin is a common sign of viable cells or microbes.)

Series [2] concerns p53 in A2780 cells. The series is described as follows: p53 ELISA (preservation of p53 in A2780 cells). Type of series: cell-based, human. The following applies: Homo sapiens, lowest dose giving at least 140% of the p53 value in the control, 16 hours treatment, read-out: p53-elisa LAD. Here is the method: The capacity of the compounds to preserve p53 in A2780 cells was measured with the p53 enzyme linked immunosorbent assay (ELISA). The p53 assay is a “sandwich” enzyme immunoassay employing two polyclonal antibodies. A polyclonal antibody, specific for the p53 protein, has been immobilized onto the surface of the plastic wells. Any p53 present in the sample to be assayed will bind to the capture antibody. The biotinylated detector polyclonal antibody also recognizes p53 protein, and will bind to any p53, which has been retained by the capture antibody. The detector antibody, in turn, is bound by horseradish peroxidase-conjugated streptavidin. The horseradish peroxidase catalyses the conversion of the chromogenic substrate o-phenylene diamine, the intensity of which is proportional to the amount of p53 protein bound to the plate. The coloured reaction product is quantified using a spectrophotometer. Quantitation is achieved by the construction of a standard curve using known concentrations of purified recombinant HIS tagged p53 protein (see example C.1).
A2780 cells (ATCC) were cultivated in RPMI 1640 supplemented with 10% fetal calf serum (FCS), 2 mM L-glutamine and gentamycin at 37° C. in a humidified incubator with 5% CO2.
A2780 cells were seeded at 20.000 cells per well in a 96 well plate, cultured for 24 hours and treated with compound for 16 hours at 37° C. in a humidified incubator. After incubation, the cells were washed once with phosphate-buffered saline and 30 μl, per well, low salt RIPA buffer (20 mM tris, pH7.0, 0.5 mM EDTA, 1% Nonidet P40, 0.5% DOC, 0.05% SDS, 1 mM PMSF, 1 μg/ml aprotinin and 0.5 μ/ml leupeptin) was added. Plates were placed on ice for 30 minutes to complete the lysis. p53 protein was detected in de lysates by using the sandwich ELISA, described below.
High binding polystyrene EIA/RIA 96 well plates (Costar 9018) were coated with the capture antibody pAb1801 (Abcam ab28-100) at a concentration of 1 μg/ml in coating buffer (0.1 M NaHCO3 pH8.2), 50 μl per well. The antibody was allowed to adhere overnight at 4° C. Coated plates were washed once with phosphate-buffered saline (PBS)/0.05% Tween 20 and 300 μl of blocking buffer (PBS, 1% bovine serum albumins (BSA)) was added, for an incubation period of 2 hours at room temperature. Dilutions of purified recombinant HIS tagged p53 protein, ranging from 3-200 ng/ml, were made in blocking buffer and used as standards.
Plates were washed twice with PBS/0.05% Tween 20 and blocking buffer or standards were added at 80 μl/well. To the standards, 20 μl of lysis buffer was added. The samples were added to the other wells at 20 μl lysate/well. After an overnight incubation at 4° C., plates were washed twice with PBS/0.05% Tween 20. Aliquots of 100 μl secondary polyclonal antibody p53(FL-393) (Tebubio, sc-6243) at a concentration of 1 μg/ml in blocking buffer were added to each well and allowed to adhere for 2 hours at room temperature. Plates were washed three times with PBS/0.05% Tween 20. Detection antibody anti-rabbit HRP (sc-2004, Tebubio) at 0.04 μg/ml in PBS/1% BSA was added and incubated for 1 hour at room temperature. Plates were washed three times with PBS/0.05% Tween 20 and 100 μl of substrate buffer was added (substrate buffer was prepared shortly before use by adding 1 tablet of 10 mg o-phenylene diamine (OPD) from Sigma and 125 μl 3% H2O2 to 25 ml OPD buffer: 35 mM citric acid, 66 mM Na2HPO4, pH5.6). After 5 to 10 minutes, colour reaction was stopped by adding 50 μl stop buffer (1 M H2SO4) per well. The absorbance at dual wavelengths of 490/655 nm was measured using a Biorad micro plate reader and the results were then analyzed.
For each experiment, controls (containing no drug) and a blank incubation (containing no cells or drugs) were run in parallel. The blank value was subtracted from all control and sample values. For each sample, the value of p53 (in absorbance units) was expressed as the percentage of the value for p53 present in the control. […]

Series [3] deals with U87MG glioma cells. The series is described as follows: Alamar Blue cell proliferation assay, U87MG. The class given is cell-based, human. The following applies: Homo sapiens, U-87 MG, 96 h, 4-day incubation, read-out: U87MG cell proliferation inhibition pIC50 (converted). Here is the method: The human U87MG glioma cells were cultured in DMEM medium supplemented with 2 mM L-Glutamine, 1 mM Sodium Pyruvate, 1.5 g/L Sodium Bicarbonate, 50 μg/ml gentamicin and 10% heat inactivated fetal calf serum. (U87MG cells are human glioblastoma cells with wild type p53. In this cell line MDM2 tightly controls p53 expression).
as §1, §2, §3, §4, §5

As for `COc1c(Nc2ccnc3c2CCC3O)ccc(NCCc2c[nH]c3c(OC)cccc23)c1F` (stereo not shown) [Compound 49], the melting point amounted to 123 °C. Moreover, the IC50 in series [1] is 0.501 µM. The minimal effective concentration in series [2] worked out at 1 µM. Also, the IC50 in series [3] was 0.646 µM.

`CC(=O)Nc1cc(NCCc2c[nH]c3ccccc23)c(F)cc1Nc1ccncc1` [Compound 50] registered a melting point of 241 °C. In addition, the IC50 in series [1] is greater than 10 µM. In addition, in series [2], the minimal effective concentration is greater than 10 µM. For the same molecule, the IC50 in series [3] is greater than 10 µM.

The molecule `OCc1cc(NCCc2c[nH]c3ccccc23)c(Br)cc1Nc1ccnc2ccccc12` [Compound 53] returned a melting point of 192 °C. For the same molecule, the IC50 in series [1] was greater than 10 µM. For the same molecule, the minimal effective concentration in series [2] is greater than 10 µM. The IC50 in series [3] was 3.98 µM.

Regarding `Cl.N#Cc1c(NCCc2c[nH]c3ccccc23)ccc(Nc2ccncc2)c1N1CCOCC1` [Compound 55], the melting point came out at 245 °C. Besides, in series [1], the IC50 was greater than 10 µM. The minimal effective concentration in series [2] was greater than 10 µM. Moreover, the IC50 in series [3] was greater than 10 µM.
